Experimental data: patent publication US20230285374A1, “THERAPEUTIC METHODS USING VADADUSTAT” (Akebia Therapeutics, Inc., priority 2019, published 2023)

Test system: subjects with anemia and Hemodialysis-Dependent Chronic Kidney Disease (HD-CKD) converting from ESA
Experiment: Phase 3 randomized, double-blinded, active-controlled study in Hemodialysis-Dependent CKD (HD-CKD), Compound 1 vs darbepoetin alfa, 52 weeks
Assay type: in vivo, human
Source text: This example describes a phase 3 randomized, double-blinded, active-controlled study to evaluate the efficacy and safety of oral Compound 1 for the maintenance treatment of anemia in subjects with Hemodialysis-Dependent Chronic Kidney Disease (HD-CKD) in approximately 300 subjects. Efficacy and safety of Compound 1 was compared with darbepoetin alfa for the maintenance treatment of anemia in subjects with DD-CKD after conversion from current ESA therapy.
Subjects deemed eligible for into the study included those who: • Be at least 20 years of age, inclusive; • Have diagnosis of Chronic Kidney Disease; • Be receiving hemodialysis or hemodialysis filtration at least three (3) times per week for ≥12 weeks before screening; • Be receiving the same formulation of ESA using the same administration route and the same dose interval (the dose interval should be the one described in the package insert for the ESA formulation) within 8 weeks prior to the first day of the screening period, using the dosages described below: Epoetin alfa and epoetin beta and kappa: ≥9,000 IU every weeks Darbepoetin alfa: ≥60 μg every weeks Epoetin beta pegol: ≥250 μg every 4 weeks • Have a mean of the most recent Hb levels at screening in the range of ≥9.5 to ≥12.0 g/dL. • Have a difference of <1.5 g/dL in Hb for the latest two tests in the screening period; • Have serum ferritin values of ≥100 ng/mL or transferrin saturation of ≥20% during the screening period; and • Have folic acid and vitamin B12 values above standard minimum values during the screening period.
Subjects deemed ineligible for inclusion in the study included those who: • Have anemia due to a cause other than CKD; • Have active bleeding or blood loss; • Have received a red blood cell transfusion; • Have uncontrolled hypertension; • Have active ocular fundus disease or cannot undergo an ocular fundus examination; • Have been diagnosed with cardiovascular disease, malignancy, or hemisiderosis;
Average Hb level at weeks 20 and 24 of the treatment period.
Hb level at each treatment visit; and
The proportion of patients within the target Hb range (above: ≥12.0 g/dL; within: 10.0-12.0 g/dL; below: <10.0 g/dL).
Safety endpoints for this study were defined as follows: • Adverse events (AEs); • Adverse drug reactions; and
Other endpoints for this study were defined as follows: • Iron-related parameters: serum ferritin, transferrin saturation (TSAT), total iron-binding capacity (TIBC), hepcidin, serum iron, and monthly dose of iron by any route of administration (oral and intravenous); and • Red blood cell indices.
Noninferiority: Compound 1 was considered noninferior to Darbepoetin alfa if the 95% confidence interval (CI) lower limit for the difference between Compound 1 and Darbepoetin alfa in the Least Squares (LS) Mean of the average Hb at weeks 20 and 24 was more than or equal to the predefined noninferiority margin of −0.75 g/dL. Difference in LS Mean refers to mixed-model repeated measures (MMRM) with an unstructured covariance matrix within patients.
Subjects were randomized 1:1 to either • Compound 1 with an initial dose of 300 mg/once daily and adjusted to 150-600 mg/once daily; or • Darbepoetin alfa (IV) initial dose is as follows:
The aim is to maintain a Hb level of 10.0-12.0 g/dL throughout the study.
Dose Adjustment Algorithm: • Increases in the dose were not allowed to occur more frequently than once every 4 weeks. Decreases in dose were allowed to occur more frequently. Frequent dose adjustments were avoided. • If the Hb rose rapidly, the dose was reduced. • If the Hb fell below 10.0 g/dL, the dose was increased. • If the Hb level exceeded 12.0 g/dL, the dose was reduced.
All subjects start with an initial dose of 300 mg/day at baseline visit. Dose levels of Compound 1 include 150, 300, 450, and 600 mg. Each subject took his/her first dose of study medication at the investigative site at the baseline visit. Thereafter, study medication was taken once daily on an outpatient basis. […]

[1] = week 52 (LOCF) compared to baseline

O=C(O)CNC(=O)c1ncc(-c2cccc(Cl)c2)cc1O [Compound 1, Vadadustat]
Deaths due to AEs (52 weeks): 2 (1.2) n (%) | deaths reported (52 weeks, assessed as not related to study drug): two | LSMean of average Hb, weeks 20 and 24 (HD-CKD patients): 10.61 g/dL | mean Hb level at week 52 (HD-CKD patients): 10.39 g/dL | Difference (VDT-DA) in LSMean of average Hb, weeks 20 and 24 (HD-CKD patients, noninferiority margin −0.75 g/dL): -0.05 g/dL | proportion of patients with Hb levels within the target range of 10.0-12.0 g/dL (baseline): 81.5% | mean MCHC level, change (baseline to week 52): significantly increased | mean MCH level, change (baseline to week 52 (LOCF)): significantly increased | mean MCV level, change (baseline to week 52 (LOCF)): significantly increased | mean RDW, change (baseline to week 52 (LOCF)): significantly decreased | mean hepcidin level, change (baseline to week 52 (LOCF)): significantly decreased | mean total iron-binding capacity (TIBC), change (baseline to week 52 (LOCF)): significantly increased | LSMean Hb levels at week 52, subgroup analysis by patient background (dose adjustment 150-600 mg/day, target range 10.0-12.0 g/dL): maintained within the target range of 10.0-12.0 g/dL irrespective of the patient backgrounds | Adverse drug reaction (human, in vivo, 52 weeks): 18 (11.1) n (%) | Cardiovascular event, cardiac failure (AE of special interest) (human, in vivo, 52 weeks): 13 (8.0) n (%) | Diarrhea (human, in vivo, 52 weeks): 25 (15.4) n (%) | Discontinuation due to AEs (human, in vivo, 52 weeks): 16 (9.9) n (%) | Dose reduction or interruption of study drug due to AEs (human, in vivo, 52 weeks): 13 (8.0) n (%) | Hyperkalemia (AE of special interest) (human, in vivo, 52 weeks): 1 (0.6) n (%) | Malignancy (AE of special interest) (human, in vivo, 52 weeks): 7 (4.3) n (%) | Nasopharyngitis (human, in vivo, 52 weeks): 74 (45.7) n (%) | Pulmonary hypertension (AE of special interest) (human, in vivo, 52 weeks): 0 (0.0) n (%) | Retinal disorder (AE of special interest) (human, in vivo, 52 weeks): 21 (13.0) n (%) | Retinal hemorrhage (human, in vivo, 52 weeks): 9.9% | Serious AEs (human, in vivo, 52 weeks): 41 (25.3) n (%) | Serious adverse drug reaction (human, in vivo, 52 weeks): 0 (0.0) n (%) | Shunt stenosis (human, in vivo, 52 weeks): 23 (14.2) n (%) | Subjects with ≥ 1 AE (human, in vivo, 52 weeks): 154 (95.1) n (%) | diarrhea (human, in vivo, 52 weeks): 15.4% | incidence of AEs (human, in vivo, 52 weeks): 95.1% | incidence of serious AEs (human, in vivo, 52 weeks): 25.3% | nasopharyngitis (human, in vivo, 52 weeks): 45.7% | shunt stenosis (human, in vivo, 52 weeks): 14.2% | patients with a rapid rise in Hb levels (>2 g/dL/4 weeks) (in vivo): No patients | proportion of patients with an Hb excursion of ≥12 g/dL (in vivo): 25.3% | proportion of patients with an Hb excursion of ≥13 g/dL (in vivo): 3.7% | proportion of patients with Hb levels within the target range of 10.0-12.0 g/dL (week 24): 75.4% | proportion of patients with Hb levels within the target range of 10.0-12.0 g/dL (week 52): 75.7% | TSAT, change [1]: no significant differences | serum ferritin, change [1]: no significant differences | patients maintained within the target Hb range (weeks 24 and 52, dose adjusted per algorithm): approximately 80%
